Where two headings read alike, the source gives them in different places.
Tests used:
Type in all cases: biochemical
hCA I = hCA I (Homo sapiens, UniProt P00915); assay: stopped-flow CO2 hydrase assay, hCA I; settings: mean from 3 different assays, errors ±5–10%
hCA II = hCA II (Homo sapiens, UniProt P00918); assay: stopped-flow CO2 hydrase assay, hCA II; settings: for Ki: mean from 3 different assays, errors ±5–10%; for selectivity index (SI) towards hCA I: hCA II inhibition relative to hCA I; for selectivity index (SI) towards hCA IX: hCA II inhibition relative to hCA IX
hCA IX = hCA IX (Homo sapiens, UniProt Q16790); assay: stopped-flow CO2 hydrase assay, hCA IX; settings: mean from 3 different assays, errors ±5–10%; read-out: KI hCAIX
MgCA = target: T1, MgCA (Malassezia globosa, UniProt A8Q1N3); assay: stopped-flow CO2 hydrase assay, MgCA; settings: mean from 3 different assays, errors ±5–10%
T1 sequence (A8Q1N3 1-241): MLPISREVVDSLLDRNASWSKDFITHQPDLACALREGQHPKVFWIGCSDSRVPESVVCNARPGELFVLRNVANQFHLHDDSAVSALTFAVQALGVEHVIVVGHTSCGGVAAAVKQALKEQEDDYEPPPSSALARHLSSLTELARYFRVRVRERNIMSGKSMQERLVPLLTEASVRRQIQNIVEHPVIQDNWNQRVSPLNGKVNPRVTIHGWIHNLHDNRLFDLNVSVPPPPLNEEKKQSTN

PgiCAβ = target: T2, PgiCAβ (Porphyromonas gingivalis, UniProt B2RL07); assay: stopped-flow CO2 hydrase assay, PgiCAβ; settings: mean from 3 different assays, errors ±5–10%
T2 sequence (B2RL07 19-242): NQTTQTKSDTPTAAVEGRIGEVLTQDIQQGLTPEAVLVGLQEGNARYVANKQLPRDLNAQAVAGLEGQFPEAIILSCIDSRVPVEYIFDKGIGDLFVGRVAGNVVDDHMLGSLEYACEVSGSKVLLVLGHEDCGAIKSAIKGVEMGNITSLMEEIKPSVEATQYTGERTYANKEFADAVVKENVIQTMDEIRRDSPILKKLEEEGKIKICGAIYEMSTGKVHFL

PgiCAγ = target: T3, PgiCAγ (Porphyromonas gingivalis, UniProt Q7MV79); assay: stopped-flow CO2 hydrase assay, PgiCAγ; settings: for Ki: mean from 3 different assays, errors ±5–10%
T3 sequence (Q7MV79 1-192): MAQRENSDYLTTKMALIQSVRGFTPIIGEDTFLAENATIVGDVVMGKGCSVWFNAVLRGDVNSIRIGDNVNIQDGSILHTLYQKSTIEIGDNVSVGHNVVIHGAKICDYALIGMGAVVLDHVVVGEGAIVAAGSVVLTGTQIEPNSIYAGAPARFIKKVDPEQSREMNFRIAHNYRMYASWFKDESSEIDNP

SmuCA = target: T4, SmuCA (Streptococcus mutans, UniProt Q8DVY1); assay: stopped-flow CO2 hydrase assay, SmuCA; settings: for Ki: mean from 3 different assays, errors ±5–10%
T4 sequence (Q8DVY1 1-166): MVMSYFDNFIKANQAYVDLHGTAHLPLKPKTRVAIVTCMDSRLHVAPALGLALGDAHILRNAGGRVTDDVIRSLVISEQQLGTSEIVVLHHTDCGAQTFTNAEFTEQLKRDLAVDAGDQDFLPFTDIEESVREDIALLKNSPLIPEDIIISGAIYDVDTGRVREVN

BpsCAγ = BpsCAγ (Burkholderia pseudomallei, UniProt Q63SQ4); settings: read-out: KI BpsCAγ
BpsCAγ, sequence (Q63SQ4 1-174): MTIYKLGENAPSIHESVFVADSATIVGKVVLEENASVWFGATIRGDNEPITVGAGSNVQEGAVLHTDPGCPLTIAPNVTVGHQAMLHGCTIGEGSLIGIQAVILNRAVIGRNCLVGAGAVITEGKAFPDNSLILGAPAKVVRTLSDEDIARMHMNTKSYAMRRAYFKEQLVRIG

CpsCAγ = CpsCAγ (Colwellia psychrerythraea, UniProt Q48AV3); assay: biochemical
CpsCAγ, sequence (Q48AV3 entry or part of it): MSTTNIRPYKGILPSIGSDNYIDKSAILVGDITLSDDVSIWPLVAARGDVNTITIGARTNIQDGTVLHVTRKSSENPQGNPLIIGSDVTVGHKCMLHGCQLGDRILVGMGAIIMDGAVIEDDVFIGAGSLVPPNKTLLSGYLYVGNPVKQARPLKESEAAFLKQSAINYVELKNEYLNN

[1] = mean from 3 different assays, errors ±5–10%, read-out: KI CpsCAγ

hCA I, sequence (P00915 whole entry): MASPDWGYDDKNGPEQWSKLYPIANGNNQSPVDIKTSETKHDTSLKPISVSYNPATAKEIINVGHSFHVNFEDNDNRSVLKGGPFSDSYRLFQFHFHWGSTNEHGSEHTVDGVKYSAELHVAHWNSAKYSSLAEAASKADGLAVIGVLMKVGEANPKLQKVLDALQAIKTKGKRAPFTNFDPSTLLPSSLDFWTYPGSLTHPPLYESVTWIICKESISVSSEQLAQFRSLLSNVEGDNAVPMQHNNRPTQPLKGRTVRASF

| SMILES | Ki (hCA I) [nM] | Ki (hCA II) [nM] | Ki (hCA IX) [nM] | Ki (MgCA) [nM] | Ki (PgiCAβ) [nM] | SI towards PgiCAβ (PgiCAγ; PgiCAγ inhibition relative to PgiCAβ) | fold more active than acetazolamide (PgiCAγ; against PgiCAγ) [fold] | Ki (PgiCAγ) [nM] | Ki (SmuCA) [nM] | Ki (BpsCAγ) [nM] | Ki (CpsCAγ) [nM] | SI towards all other bacterial strains (SmuCA; S. mutans CA inhibition relative to other bacterial CAs) | selectivity index (SI) towards hCA I (hCA II) | selectivity index (SI) towards hCA IX (hCA II) | Ki (CpsCAγ; [1]) [nM] | SI towards BpsCAγ (CpsCAγ; CpsCAγ inhibition relative to BpsCAγ) | SI towards PgiCAγ (CpsCAγ; CpsCAγ inhibition relative to PgiCAγ) | SI towards S. mutans (CpsCAγ; CpsCAγ inhibition relative to S. mutans CA) |
| --- | --- | --- | --- | --- | --- | --- | --- | --- | --- | --- | --- | --- | --- | --- | --- | --- | --- | --- |
| COc1cc(OC)c2c(c1Cl)OC1(C(=O)C=C(NCCS(N)(=O)=O)CC1C)C2=O [Compound 1a, 2-(((2S,6′R)-7-chloro-4,6-dimethoxy-6′-methyl-2′,3-dioxo-3H-spiro[benzofuran-2,1′-cyclohexan]-3′-en-4′-yl)amino)ethane-1-sulfonamide] | 562 | 653 | 31.2 | 544 | 779 | 8.5 | 3.5 | 92.1 | 1630 | 448 | 3150 | – | – | – | – | – | – | – |
| COc1cc(OC)c2c(c1Cl)OC1(C(=O)C=C(Nc3ccc(S(N)(=O)=O)cc3)CC1C)C2=O [Compound 1b, 4-(((2S,6′R)-7-chloro-4,6-dimethoxy-6′-methyl-2′,3-dioxo-3H-spiro[benzofuran-2,1′-cyclohexan]-3′-en-4′-yl)amino)benzenesulfonamide] | 234 | 64.4 | 203 | 476 | 819 | – | – | 820 | 294 | 945 | 939 | 3 | – | – | – | – | – | – |
| COc1cc(OC)c2c(c1Cl)OC1(C(=O)C=C(NCc3ccc(S(N)(=O)=O)cc3)CC1C)C2=O [Compound 1c, 4-((((2S,6′R)-7-chloro-4,6-dimethoxy-6′-methyl-2′,3-dioxo-3H-spiro[benzofuran-2,1′-cyclohexan]-3′-en-4′-yl)amino)methyl)benzenesulfonamide] | 74.6 | 29.1 | 102 | 568 | 896 | – | – | 661 | 4000 | 833 | 900 | – | – | – | – | – | – | – |
| COc1cc(OC)c2c(c1Cl)OC1(C(=O)C=C(Nc3ccc(S(N)(=O)=O)cc3O)CC1C)C2=O [Compound 1d, 4-(((2S,6′R)-7-chloro-4,6-dimethoxy-6′-methyl-2′,3-dioxo-3H-spiro[benzofuran-2,1′-cyclohexan]-3′-en-4′-yl)amino)-3-hydroxybenzenesulfonamide] | 28.8 | 4.9 | 29.4 | 1590 | 1280 | – | – | 584 | 897 | 878 | 591 | – | 5.88 | 6.00 | – | – | – | – |
| COc1cc(OC)c2c(c1Cl)O[C@@]1(C(=O)/C(=C\NCc3ccc(S(N)(=O)=O)cc3)C(=O)C[C@H]1C)C2=O [Compound 1e] | 320 | 165 | 29.2 | 1830 | 940 | – | – | 1270 | 1640 | 1060 | 220 | – | – | – | – | – | – | – |
| COc1cc(OC)c2c(c1Cl)O[C@@]1(C(=O)C(=CNCCc3ccc(S(N)(=O)=O)cc3)C(=O)C[C@H]1C)C2=O [Compound 1f, 4-(2-((((2R,2′R)-7-chloro-4,6-dimethoxy-2′-methyl-3,4′,6′-trioxo-3H-spiro[benzofuran-2,1′-cyclohexan]-5′-ylidene)methyl)amino)ethyl)benzenesulfonamide] | 348 | 70.8 | 30.6 | 4000 | 8360 | – | – | 602 | 2470 | 2280 | 726 | – | – | – | – | – | – | – |
| COc1cc(C(CC(=O)NCCS(N)(=O)=O)C2C(=O)C[C@@H](C)[C@]3(Oc4c(Cl)c(OC)cc(OC)c4C3=O)C2=O)ccc1O (stereo partly drawn) [Compound 1g] | 2990 | 4050 | 710 | 3150 | 5590 | – | – | 2220 | 1220 | 2330 | – | – | – | – | 301 | – | – | – |
| COc1cc(OC)c2c(c1Cl)O[C@]1(C2=O)C(=O)C(C(CC(=O)NCc2ccc(S(N)(=O)=O)cc2)c2ccc(SC)cc2)C(=O)C[C@H]1C (stereo partly drawn) [Compound 1h] | 41.1 | 7.5 | 73.7 | 4350 | 5750 | – | – | 853 | 580 | 1400 | – | – | – | – | 625 | – | – | – |
| COc1cc(OC)c2c(c1Cl)O[C@]1(C2=O)C(=O)C(C(CC(=O)NCCc2ccc(S(N)(=O)=O)cc2)c2ccc(SC)cc2)C(=O)C[C@H]1C (stereo partly drawn) [Compound 1i, 3-((2S,2′R)-7-chloro-4,6-dimethoxy-2′-methyl-3,4′,6′-trioxo-3H-spiro[benzofuran-2,1′-cyclohexan]-5′-yl)-3-(4-(methylthio)phenyl)-N-(4-sulfamoylphenethyl)propenamide] | 15.3 | 8.1 | 23.3 | 1910 | 506 | – | – | 854 | 889 | 1040 | – | – | – | – | 804 | – | – | – |
| COc1cc(OC)c2c(c1Cl)O[C@]1(C2=O)C(=O)C(C(CC(=O)NCC(=O)Nc2ccc(S(N)(=O)=O)cc2)c2ccc(SC)cc2)C(=O)C[C@H]1C (stereo partly drawn) [Compound 1j, 3-((2S,2′R)-7-chloro-4,6-dimethoxy-2′-methyl-3,4′,6′-trioxo-3H-spiro[benzofuran-2,1′-cyclohexan]-5′-yl)-3-(4-(methylthio)phenyl)-N-(2-oxo-2-((4-sulfamoylphenyl)amino)ethyl)propenamide] | 27.7 | 5.7 | 22.5 | 2050 | 3000 | – | – | 2320 | 1230 | 710 | – | – | – | – | 177 | 4 | 13 | 6.9 |
| CC(=O)c1c(O)c(C)c(O)c2c1OC1=CC(=O)C(=C(C)Nc3ccc(S(N)(=O)=O)cc3O)C(=O)[C@@]12C [Compound 4a, (R)-4-((1-(6-acetyl-7,9-dihydroxy-8,9b-dimethyl-1,3-dioxo-3,9b-dihydrodibenzo[b,d]furan-2(1H)-ylidene)ethyl)amino)-3-hydroxybenzenesulfonamide] | 370 | 8.4 | 66.9 | 3430 | 888 | – | – | 897 | 841 | 473 | 723 | – | 43.9 | 7.96 | – | – | – | – |
| CC(=O)c1c(O)c(C)c(O)c2c1OC1=CC(=O)C(=C(C)Nc3cc(S(N)(=O)=O)ccc3O)C(=O)[C@@]12C [Compound 4b, (R)-3-((1-(6-acetyl-7,9-dihydroxy-8,9b-dimethyl-1,3-dioxo-3,9b-dihydrodibenzo[b,d]furan-2(1H)-ylidene)ethyl)amino)-4-hydroxybenzenesulfonamide] | – | 755 | 305 | 2500 | 766 | – | – | 1840 | 1700 | 1000 | 809 | – | – | – | – | – | – | – |

— article PMC9917406, “Synthesis, Biological and In Silico Studies of Griseofulvin and Usnic Acid Sulfonamide Derivatives as Fungal, Bacterial and Human Carbonic Anhydrase Inhibitors” (International Journal of Molecular Sciences, 2023)
